The results in this text go back to US20230114241A1, “METHODS OF TREATING EPILEPSY USING THE SAME” (Trevena, Inc., priority 2019, published 2023).

By IC50 is commonly meant the concentration at which inhibition is half-maximal. The low end stands for higher potency, the high end for lower potency.

Data set [1] has as its target human sphingosine-1-phosphate receptor 3 (S1P3) (Homo sapiens, UniProt Q99500). Kind of data set: Selectivity: inhibition of cAMP production (HTRF), S1P3 CHO-K1 cells. It counts as cell-based. The settings on record: for Emax: CHO-K1, efficacy normalized to maximal efficacy of fimgolimod, read-out: hS1P3 cAMP SPAN; for EC50: inhibition of cAMP production, read-out: hS1P3 cAMP pEC50 (converted). (Cyclic AMP is a second messenger, typically raised through Gs and lowered through Gi signalling.)

Another data set has as its target hERG channel (Homo sapiens, UniProt Q12809). The experiment in a line: cell-based.
Data set [2] addresses T1, human sphingosine-1-phosphate receptor 1 (S1P1) (Homo sapiens, UniProt P21453). The experiment in a line: Inhibition of cAMP production (HTRF cAMP HiRange), S1P1 CHO-K1 cells. The note with it: for Emax: CHO-K1, efficacy normalized to maximum efficacy of fingolimod, read-out: hS1P1 CAMP SPAN; for EC50: read-out: hS1P1 CAMP pEC50 (converted). It counts as cell-based. In outline: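 CHO-K1 cells co-expressing human S1P1 (C-terminal ProLink tag) and EA-β-arrestin2, plated overnight; after 30 min compound incubation at 37 °C, intracellular cAMP measured by HTRF TR-FRET following 1 h at room temperature. Values normalized to fingolimod.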
Target sequence in this assay (P21453 whole entry): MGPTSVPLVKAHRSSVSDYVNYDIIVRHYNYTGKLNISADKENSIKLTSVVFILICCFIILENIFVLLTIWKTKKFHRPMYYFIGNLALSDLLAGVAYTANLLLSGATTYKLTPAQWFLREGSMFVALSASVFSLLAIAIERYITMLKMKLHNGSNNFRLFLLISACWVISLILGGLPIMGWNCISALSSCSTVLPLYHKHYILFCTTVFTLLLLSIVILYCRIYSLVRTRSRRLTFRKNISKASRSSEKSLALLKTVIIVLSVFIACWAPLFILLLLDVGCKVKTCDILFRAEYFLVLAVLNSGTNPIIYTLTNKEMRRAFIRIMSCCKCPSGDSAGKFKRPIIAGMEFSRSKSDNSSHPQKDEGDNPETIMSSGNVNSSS

Data set [3] has as its target T1, human sphingosine-1-phosphate receptor 1 (S1P1). Kind of data set: β-Arrestin2 recruitment assay (PathHunter), S1P1 CHO-K1 cells. It counts as cell-based. The settings on record: for Emax: efficacy normalized to maximum efficacy of fingolimod, read-out: hS1P1 B-arrestin2 SPAN; for EC50: β-arrestin2 recruitment, read-out: hS1P1 B-arrestin2 pEC50 (converted). Summed up:
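CHO-K1 cells co-expressing EA-β-arrestin2 and ProLink-tagged human S1P1 plated overnight, then stimulated 60 min at 37 °C. Enzyme-fragment complementation (β-galactosidase) detected after 1 h at room temperature by luminescence; values normalized to fingolimod.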
Target sequence in this assay (P21453 whole entry): as above
Target sequence in this assay (P32121 whole entry partner): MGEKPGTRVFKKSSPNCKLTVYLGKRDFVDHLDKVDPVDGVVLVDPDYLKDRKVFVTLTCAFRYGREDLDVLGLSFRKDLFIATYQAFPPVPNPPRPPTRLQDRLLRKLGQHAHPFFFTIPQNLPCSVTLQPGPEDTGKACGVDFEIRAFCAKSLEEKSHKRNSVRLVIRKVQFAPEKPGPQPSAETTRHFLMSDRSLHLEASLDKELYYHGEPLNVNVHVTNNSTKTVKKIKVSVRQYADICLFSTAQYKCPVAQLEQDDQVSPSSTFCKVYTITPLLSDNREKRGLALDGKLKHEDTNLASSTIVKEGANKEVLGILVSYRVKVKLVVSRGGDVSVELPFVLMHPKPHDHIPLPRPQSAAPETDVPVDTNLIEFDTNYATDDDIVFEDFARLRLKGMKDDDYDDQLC
On the technique in general: Activated receptors often draw arrestin, which recruitment assays turn into a signal.

In data set [4] the target is sphingosine-1-phosphate receptor 5 (S1P5) (Homo sapiens, UniProt Q9H228). Kind of data set: Selectivity: inhibition of cAMP production (HTRF), S1P5 CHO-K1 cells. The settings on record: for Emax: CHO-K1, efficacy normalized to maximal efficacy of fimgolimod, read-out: hS1P5 cAMP SPAN; for EC50: inhibition of cAMP production, read-out: hS1P5 cAMP pEC50 (converted). It is filed as cell-based.

The target in data set [5] is human sphingosine-1-phosphate receptor 2 (S1P2) (Homo sapiens, UniProt O95136). The experiment in a line: Selectivity: inositol monophosphate production (IP-one), S1P2 CHO-K1 cells. The note with it: for Emax: CHO-K1, efficacy normalized to maximal efficacy of CYM5520, read-out: hS1P2 IP-one SPAN; for EC50: inositol monophosphate accumulation, read-out: hS1P2 IP-one pEC50 (converted). It is filed as cell-based.

The subject of data set [6] is peripheral blood lymphocytes. The experiment in a line: Lymphopenia: peripheral blood lymphocyte counts, acute and chronic s.c. dosing. It is filed as in vivo. The settings on record: 6 mg/kg sc, 7 days, c57bl/6 mice. In outline: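 C57bl/6 mice given test compound s.c.: acute, single 3 mg/kg (n=5/group), sampled at set times; chronic, 3-7 days at ≥5-fold the efficacious dose (n=6-8/group), sampled 45 min to 6 h after last dose. EDTA whole-blood lymphocyte counts (10^3 cells/μl) by Advia 120, compared with vehicle.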

[7] abbreviates: inhibition of cAMP production, potency.
Where [8] appears, read: CHO-K1, β-arrestin2 recruitment.

Chain of human sphingosine-1-phosphate receptor 2 (S1P2) (O95136 whole entry): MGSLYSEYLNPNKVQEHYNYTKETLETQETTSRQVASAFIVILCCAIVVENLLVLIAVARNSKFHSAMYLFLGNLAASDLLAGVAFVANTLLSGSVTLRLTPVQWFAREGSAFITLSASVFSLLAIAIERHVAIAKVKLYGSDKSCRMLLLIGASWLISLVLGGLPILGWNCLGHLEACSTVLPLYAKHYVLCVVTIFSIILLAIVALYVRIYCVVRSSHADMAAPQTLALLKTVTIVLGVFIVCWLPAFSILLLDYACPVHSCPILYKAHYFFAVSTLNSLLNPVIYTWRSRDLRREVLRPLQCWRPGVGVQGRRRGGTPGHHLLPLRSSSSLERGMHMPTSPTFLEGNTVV
Chain of human sphingosine-1-phosphate receptor 3 (S1P3) (Q99500 whole entry): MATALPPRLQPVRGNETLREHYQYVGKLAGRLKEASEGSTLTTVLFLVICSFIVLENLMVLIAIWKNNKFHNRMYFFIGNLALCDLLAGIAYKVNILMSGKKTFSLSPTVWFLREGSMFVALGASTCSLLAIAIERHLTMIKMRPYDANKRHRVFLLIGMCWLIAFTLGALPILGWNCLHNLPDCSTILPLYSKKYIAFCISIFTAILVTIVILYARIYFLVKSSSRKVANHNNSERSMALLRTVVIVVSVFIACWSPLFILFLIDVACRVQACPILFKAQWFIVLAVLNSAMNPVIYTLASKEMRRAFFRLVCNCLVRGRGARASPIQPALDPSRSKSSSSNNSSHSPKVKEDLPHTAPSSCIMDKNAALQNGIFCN
Chain of sphingosine-1-phosphate receptor 5 (S1P5) (Q9H228 whole entry): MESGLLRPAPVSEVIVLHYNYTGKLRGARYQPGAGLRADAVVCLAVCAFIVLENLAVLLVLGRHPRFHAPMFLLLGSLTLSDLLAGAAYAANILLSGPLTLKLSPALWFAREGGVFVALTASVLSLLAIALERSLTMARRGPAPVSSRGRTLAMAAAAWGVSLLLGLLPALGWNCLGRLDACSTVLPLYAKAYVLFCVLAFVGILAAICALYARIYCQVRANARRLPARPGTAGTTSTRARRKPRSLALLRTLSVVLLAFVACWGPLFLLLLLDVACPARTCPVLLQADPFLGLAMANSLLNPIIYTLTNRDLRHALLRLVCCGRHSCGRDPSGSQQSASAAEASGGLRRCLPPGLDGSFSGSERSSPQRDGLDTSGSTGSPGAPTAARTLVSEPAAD
Chain of hERG channel (Q12809 whole entry): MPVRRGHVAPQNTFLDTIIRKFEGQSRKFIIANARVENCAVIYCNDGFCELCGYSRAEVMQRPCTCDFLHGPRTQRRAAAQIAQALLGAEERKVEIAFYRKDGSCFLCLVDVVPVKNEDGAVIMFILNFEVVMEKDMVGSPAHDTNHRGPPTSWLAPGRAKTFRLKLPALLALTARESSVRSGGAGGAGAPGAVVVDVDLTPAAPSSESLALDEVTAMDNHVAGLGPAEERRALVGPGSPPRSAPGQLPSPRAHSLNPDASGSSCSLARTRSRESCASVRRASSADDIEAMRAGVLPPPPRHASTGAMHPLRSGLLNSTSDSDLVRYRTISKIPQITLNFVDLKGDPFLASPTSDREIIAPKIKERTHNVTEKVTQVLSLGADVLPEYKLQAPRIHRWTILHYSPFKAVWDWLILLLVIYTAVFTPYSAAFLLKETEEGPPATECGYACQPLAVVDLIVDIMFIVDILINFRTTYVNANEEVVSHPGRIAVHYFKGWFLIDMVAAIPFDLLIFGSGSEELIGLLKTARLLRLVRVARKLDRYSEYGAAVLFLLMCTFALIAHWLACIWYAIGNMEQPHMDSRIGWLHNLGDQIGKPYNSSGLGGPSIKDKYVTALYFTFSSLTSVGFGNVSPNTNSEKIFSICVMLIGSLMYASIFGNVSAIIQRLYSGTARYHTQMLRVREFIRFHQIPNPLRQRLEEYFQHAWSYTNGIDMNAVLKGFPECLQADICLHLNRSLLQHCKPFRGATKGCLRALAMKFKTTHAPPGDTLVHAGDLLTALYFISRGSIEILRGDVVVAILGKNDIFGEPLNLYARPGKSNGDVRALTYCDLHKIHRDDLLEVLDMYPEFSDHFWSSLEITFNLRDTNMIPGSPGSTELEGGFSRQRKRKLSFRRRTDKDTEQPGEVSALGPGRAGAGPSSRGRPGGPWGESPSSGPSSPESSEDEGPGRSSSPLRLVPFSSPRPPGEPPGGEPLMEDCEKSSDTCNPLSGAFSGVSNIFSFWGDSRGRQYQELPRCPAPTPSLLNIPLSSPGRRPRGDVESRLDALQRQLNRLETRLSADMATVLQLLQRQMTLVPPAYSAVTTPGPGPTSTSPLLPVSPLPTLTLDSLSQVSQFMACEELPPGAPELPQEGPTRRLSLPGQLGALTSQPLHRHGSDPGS

For the compound `COc1ccc(-c2noc(-c3ccc4c(c3)nnn4CC(C)(C)O)n2)c(C)c1` [Compound 26, 1-{5-[3-(4-methoxy-2-methylphenyl)-1,2,4-oxadiazol-5-yl]-1H-1,2,3-benzo-triazol-1-yl}-2-methylpropan-2-ol], the Emax was under 50% in data set [1]; over 75% in data set [2] (inhibition of cAMP production); over 75% in data set [3] (setting [8]); under 50% in data set [4]; under 50% in data set [5]. Moreover, the EC50 in data set [1] is over 10 µM; in data set [2] (setting [7]) it was under 0.316 µM; in data set [3] (potency), under 10 µM; in data set [4], over 10 µM; in data set [5], over 10 µM. On hERG channel, the concentration for half-maximal inhibition (IC50) was over 10 µM.
`CC(C)n1nnc2cc(-c3nc(-c4cccc5c4OCCC5)no3)ccc21` [Compound 304, 3-chroman-8-yl-5-(1-isopropylbenzotriazol-5-yl)-1,2,4-oxadiazole]: the Emax is under 50% in data set [1]; under 75% in data set [2] (inhibition of cAMP production); over 75% in data set [3] (setting [8]); under 50% in data set [4]; under 50% in data set [5]. Further, the EC50 in data set [1] is under 10 µM; in data set [2] (setting [7]) it was under 0.316 µM; in data set [3] (potency), under 10 µM; in data set [4], over 10 µM; in data set [5], over 10 µM. For the same compound, the half-maximal inhibitory concentration (IC50) against hERG channel was over 10 µM. For the same compound, the “Lymphopenia effect (peripheral blood lymphocytes)” value in data set [6] is “no change: 6 mg/kg, 7 days”.
The compound `N#Cc1cc(-c2nc(-c3ccc4c(c3)NC(=O)C4)no2)ccc1NCC1CC1` [Compound 497, 2-((cyclopropyl-methyl)amino)-5-(3-(2-oxoindolin-6-yl)-1,2,4-oxadiazol-5-yl)benzonitrile] showed a concentration for half-maximal inhibition (IC50) on hERG channel of over 10 µM. The Emax in data set [2] and in data set [3] (CHO-K1) was over 75% throughout. The EC50 in data set [2] (inhibition of cAMP production, S1P1) was under 0.316 µM; in data set [3] (S1P1), under 10 µM.
Turning to `CC(C)Nc1ccc(-c2nc(-c3ccc4nonc4c3)no2)cc1C#N` [Compound 730, 5-[3-(2,1,3-benzoxa-diazol-5-yl)-1,2,4-oxadiazol-5-yl]-2-[(propan-2-yl)amino]benzonitrile], the concentration for half-maximal inhibition (IC50) at hERG channel was over 10 µM. The “Lymphopenia effect (peripheral blood lymphocytes)” value in data set [6] is on record as “no change: 6 mg/kg, 7 days”.
For `CC(C)Oc1ccc(-c2ncc(-c3ccnc(O)c3)cn2)cc1C#N` [Compound 744, 5-(5-(2-hydroxy-pyridin-4-yl)pyrimidin-2-yl)-2-isopropoxy-benzonitrile], at hERG channel, the half-inhibitory concentration (IC50) is over 10 µM.
